According to patent US11072635B2, “Macrocyclic broad spectrum antibiotics” (priority 2015, dated 2021):
In brackets after ≈: the same amount, converted by molar mass. Like-named read-outs stand apart in the source and are kept apart here.

What was measured:
[1] = system: Methicillin Resistant Staphylococcus aureus strain USA 300, NRS384 (S. aureus); assay: Minimum inhibitory concentration, broth micro-dilution (CLSI); type: cell-based
Procedure: (§1) In vitro antimicrobial activity of each compound was determined by measuring minimal inhibitor concentrations (MICs) using the broth micro-dilution technique as approved by the Clinical and Laboratory Standards Institute (CLSI) (Methods for Dilution Antimicrobial Susceptibility Tests for Bacteria that Grow Aerobically; Approved Standard—Eighth Edition. CLSI document M07-A8. Wayne, Pa.: Clinical and Laboratory Standards; 2009). Antibacterial activity was measure against three strains of bacteria: a Methicillin Resistant Staphylococcus aureus strain USA 300, NRS384 (S. aureus); a strain of Escherichia coli MC4100 harboring the IMP4213 (E. coli IMP), which results in increased outer-membrane permeability (B Martin and Silhavy T. Imp/OstA is required for cell envelope biogenesis in Escherichia coli. (2002) Molecular Microbiology, 45(5), 1289-1302), and Escherichia coli ATCC 25922 (E. coli), a clinically relevant Gram-negative strain. Cells were inoculated onto plates of Trypyticase Soy Agar or Luria Agar respectively and grown at 35° C. for 20 hours. Inocula suspensions were prepared by scraping cells into 1 mL of testing media (cation adjusted Mueller Hinton Broth supplemented with 0.002% v/v Tween-80) and diluting to a final OD600 nm of 0.01.
(§2) Test compounds were prepared in DMSO at a concentration of 10 mg/mL. […] In protocol 2, the compound stocks were diluted into testing media at a concentration of 4 μg/mL and serial 2-fold dilutions were made in the same media, in 96-well U bottom microtiter dishes, for a total of 10 compound concentrations. In protocol 3, compound stocks were diluted into testing media at a concentration of 0.5 μg/mL, with serial 2-fold dilutions conducted as described above. […] Inocula suspensions were added to the 2-fold serial dilutions of test compounds to a final density of OD OD600 nm of 0.0005 and incubated at 35° C. for 22 hours.

[2] = biological target: T1, SpsB (Staphylococcus aureus signal peptidase) (Staphylococcus aureus, UniProt P0A070); assay: Whole-cell SpsB biochemical screening assay (kinetic fluorogenic enzyme activity)
T1 construct: a suspension of Staphylococcus aureus cells as a source of SpsB instead of recombinant SpsB protein; endogenous in cells; host or cells: S. aureus, USA300 background, overexpressing SpsB (whole-cell suspension)
T1 sequence (P0A070 whole entry): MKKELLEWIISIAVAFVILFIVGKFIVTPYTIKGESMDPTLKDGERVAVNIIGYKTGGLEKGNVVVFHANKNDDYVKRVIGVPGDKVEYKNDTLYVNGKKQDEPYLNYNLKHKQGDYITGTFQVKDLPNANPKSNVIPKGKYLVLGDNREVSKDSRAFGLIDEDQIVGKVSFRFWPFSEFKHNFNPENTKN
Procedure: A kinetic fluorogenic enzyme activity assay was used to assess inhibition of SpsB (Staphylococcus aureus signal peptidase) activity and IC50s were determined. This assay uses a suspension of Staphylococcus aureus cells as a source of SpsB instead of recombinant SpsB protein.
Cell preparation: Luria broth (LB) was inoculated with S. aureus (USA300 background, overexpressing SpsB) and shaken at 37° C. until an OD600 nm of 1.5-2.0 was reached (˜4 hr). The culture was then diluted to an OD600 nm of 1.0 with LB, aliquoted and centrifuged at 10,000×g for 2 mins. The supernatant was removed and the pellet was resuspended in phosphate buffer (1×PBS, 12.5 mg/L MgCl2, 25 mg/L CaCl2, 0.1% Tween-80) to an OD600 nm of 0.5, then centrifuged again at 10,000×g for 2 mins. The supernatant was removed and the pellets were frozen at −20° C.
Test compounds were prepared in DMSO at a concentration of 10 mg/mL. These compound stocks were diluted into DMSO to a concentration of 25 μg/mL and serial 3-fold dilutions were made in DMSO, for a total of 11 compound concentrations. 20 nL of each compound solution was pre-spotted into a white 384-well plate (50 μL/well polypropylene, Nunc) using acoustic fluid transfer (Echo).
Frozen S. aureus pellets were resuspended in assay buffer (1×PBS, 12.5 mg/L MgCl2, 25 mg/L CaCl2, 0.1% Tween-80) to an OD600 nm of 0.05, then mixed 1:1 (v/v) with 20 μM substrate ((Dabcyl)βAla-KPAKAAE(Edans)) in assay buffer, and this solution was added (20 μL/well) to the 384-well plate that had been pre-spotted with compound. Fluorescence intensity was then immediately read kinetically for 30 minutes with 2 minute read intervals to monitor cleavage of the internally quenched peptide substrate (excitation wavelength=340 nm, emission wavelength=490 nm, Molecular Devices Spectramax M5). Reaction rate (slope) was plotted against inhibitor concentration to derive the IC50.

[3] = system: Escherichia coli MC4100 harboring the IMP4213 (E. coli IMP); assay: microbe, parasite or virus in culture; type: cell-based; conditions: 22 h, read-out: MIC (μg/mL) E. coli IMP
Procedure: as §1, §2

[4] = system: Escherichia coli ATCC 25922 (E. coli); assay: Minimum inhibitory concentration, broth micro-dilution (CLSI); type: cell-based; conditions: read-out: MIC (μg/mL) E. coli
Procedure: Cells were inoculated onto plates of Trypyticase Soy Agar or Luria Agar respectively and grown at 35° C. for 20 hours. Inocula suspensions were prepared by scraping cells into 1 mL of testing media (cation adjusted Mueller Hinton Broth supplemented with 0.002% v/v Tween-80) and diluting to a final OD600 nm of 0.01.
as §2

[5] = MRSA / NRS 384 / USA300, 22 h, read-out: MIC (μg/mL) S. aureus
[6] = ATCC25922, E. coli ATCC 25922, 35° C., 22 hours
[7] = MRSA / NRS 384 / USA300, MRSA USA 300, NRS384, 35° C., 22 hours, cation adjusted Mueller Hinton Broth with 0.002% Tween-80, read-out: MIC (μg/mL) S. aureus

Row | SMILES | MIC [1, 5] [µg/mL] | IC50 [2] [nM] | MIC [3] [µg/mL] | MIC ([4]; ATCC25922, 22 h) [µg/mL] | MIC [4, 6] [µg/mL] | MIC [1, 7] [µg/mL]
1 | CCCCCCCCc1ccc(C(=O)N[C@@H](CCN)C(=O)N(C)[C@@H]2C(=O)N[C@@H](C)C(=O)N[C@H](C(=O)NOC)Cc3ccc(OCCN)c(c3)-c3cc2ccc3OCCN)c(C)c1 [Compound 113] | 0.063 (≈ 0.0733 µM) | 1.2 | 0.047 (≈ 0.0547 µM) | 4 (≈ 4.66 µM) | – | –
2 | CCCCc1ccc(-c2ccc(C(=O)N[C@@H](CCCCN)C(=O)N(C)[C@@H]3C(=O)N[C@@H](C)C(=O)N[C@H](C(=O)NCCC#N)Cc4ccc(OCCN)c(c4)-c4cc3ccc4OCCN)cc2)cc1 [Compound 119] | – | 71 | 1 (≈ 1.09 µM) | – | 24 (≈ 26.2 µM) | –
3 | CCCCCCCCCCCCCC(=O)N[C@@H](CCCCN)C(=O)N(C)[C@@H]1C(=O)N[C@@H](C)C(=O)N[C@H](C(=O)NCCC#N)Cc2ccc(OCCN)c(c2)-c2cc1ccc2OCCN [Compound 120] | – | 18 | 0.5 (≈ 0.562 µM) | – | 16 (≈ 18 µM) | 2 (≈ 2.25 µM)
4 | CCCCc1ccc(-c2ccc(C(=O)N[C@@H](CCCCN)C(=O)N(C)[C@@H]3C(=O)N[C@@H](C)C(=O)N[C@H](C(=O)Nc4ccncc4C#N)Cc4ccc(OCCN)c(c4)-c4cc3ccc4OCCN)cc2)cc1 [Compound 121] | – | 12 | 0.25 (≈ 0.259 µM) | – | 8 (≈ 8.29 µM) | 4 (≈ 4.14 µM)
5 | CCCCc1ccc(-c2ccc(C(=O)N[C@@H](CN)C(=O)N(C)[C@@H]3C(=O)N[C@@H](C)C(=O)N[C@H](c4nnn[nH]4)Cc4ccc(OCCN)c(c4)-c4cc3ccc4OCCN)cc2)cc1 [Compound 123] | – | 15 | < 0.063 | – | 8 (≈ 9.46 µM) | 1.5 (≈ 1.77 µM)
6 | CCCCc1ccc(-c2ccc(C(=O)N[C@@H](CN)C(=O)N(C)[C@@H]3C(=O)N[C@@H](C)C(=O)N[C@H](C#N)Cc4ccc(OCCN)c(c4)-c4cc3ccc4OCCN)cc2)cc1 [Compound 124] | – | 14 | 0.5 (≈ 0.623 µM) | – | 8 (≈ 9.96 µM) | 1 (≈ 1.25 µM)
7 | CCCCc1ccc(-c2ccc(C(=O)N[C@@H](CN)C(=O)N(C)[C@@H]3C(=O)N[C@@H](C)C(=O)N[C@H](c4noc(=O)[nH]4)Cc4ccc(OCCN)c(c4)-c4cc3ccc4OCCN)cc2)cc1 [Compound 125] | – | 1 | 0.036 (≈ 0.0418 µM) | – | 0.5 (≈ 0.58 µM) | 0.38 (≈ 0.441 µM)
8 | CCCCc1ccc(-c2ccc(C(=O)N[C@@H](CN)C(=O)N(C)[C@@H]3C(=O)N[C@@H](C)C(=O)N[C@H](c4n[nH]c(=O)[nH]4)Cc4ccc(OCCN)c(c4)-c4cc3ccc4OCCN)cc2)cc1 [Compound 126] | – | 6.2 | 0.031 (≈ 0.036 µM) | – | 1 (≈ 1.16 µM) | 4 (≈ 4.65 µM)
9 | CCCCc1ccc(-c2ccc(C(=O)N[C@@H](CN)C(=O)N(C)[C@@H]3C(=O)N[C@@H](C)C(=O)N[C@H](CC#N)Cc4ccc(OCCN)c(c4)-c4cc3ccc4OCCN)cc2)cc1 [Compound 127] | – | 2.7 | 2 (≈ 2.45 µM) | – | 32 (≈ 39.2 µM) | 2 (≈ 2.45 µM)
10 | CCCCc1ccc(-c2ccc(C(=O)N[C@@H](CCCN)C(=O)N(C)[C@@H]3C(=O)N[C@@H](C)C(=O)N[C@H](C(=O)NS(N)(=O)=O)Cc4ccc(OCCN)c(c4)-c4cc3ccc4OCCN)cc2)cc1 [Compound 128] | 1.5 (≈ 1.62 µM) | 1.5 | 0.012 (≈ 0.0129 µM) | 0.75 (≈ 0.808 µM) | – | –
11 | C#CCNC(=O)[C@@H]1Cc2ccc(OCCN)c(c2)-c2cc(ccc2OCCN)[C@H](N(C)C(=O)[C@H](CCCN)NC(=O)c2ccc(-c3ccc(CCCC)cc3)cc2)C(=O)N[C@@H](C)C(=O)N1 [Compound 129] | 0.5 (≈ 0.564 µM) | 2.2 | 0.094 (≈ 0.106 µM) | 4 (≈ 4.51 µM) | – | –
12 | CCCCCCCCc1ccc(C(=O)N[C@@H](CCN)C(=O)N(C)[C@@H]2C(=O)N[C@@H](C)C(=O)N[C@H](c3noc(=O)[nH]3)Cc3ccc(OCCN)c(c3)-c3cc2ccc3OCCN)c(C)c1 [Compound 131] | – | 2.1 | 0.0078 (≈ 0.00896 µM) | – | 0.5 (≈ 0.575 µM) | 0.094 (≈ 0.108 µM)
13 | CCCCCCCCc1ccc(C(=O)N[C@@H](CCN)C(=O)N(C)[C@@H]2C(=O)N[C@@H](C)C(=O)N[C@H](c3noc(=S)[nH]3)Cc3ccc(OCCN)c(c3)-c3cc2ccc3OCCN)c(C)c1 [Compound 133] | – | 2.3 | 0.094 (≈ 0.106 µM) | – | 8 (≈ 9.03 µM) | 1 (≈ 1.13 µM)
14 | CCCCc1ccc(-c2ccc(C(=O)N[C@@H](CCCN)C(=O)N(C)[C@@H]3C(=O)N[C@@H](C)C(=O)N[C@H](C(=O)NC#N)Cc4ccc(OCCN)c(c4)-c4cc3ccc4OCCN)cc2)cc1 [Compound 134] | – | 7.1 | 0.13 (≈ 0.149 µM) | – | 4 (≈ 4.58 µM) | 1 (≈ 1.14 µM)
15 | CCCCc1ccc(-c2ccc(C(=O)N[C@@H](CCCN)C(=O)N(C)[C@@H]3C(=O)N[C@@H](C)C(=O)N[C@H](C(=O)NO)Cc4ccc(OCCN)c(c4)-c4cc3ccc4OCCN)cc2)cc1 [Compound 136] | 0.38 (≈ 0.439 µM) | 1.2 | 0.13 (≈ 0.15 µM) | 2 (≈ 2.31 µM) | – | –
16 | CCCCc1ccc(-c2ccc(C(=O)N[C@@H](CCCN)C(=O)N(C)[C@@H]3C(=O)N[C@@H](C)C(=O)N[C@H](C(=O)NN)Cc4ccc(OCCN)c(c4)-c4cc3ccc4OCCN)cc2)cc1 [Compound 137] | 0.5 (≈ 0.579 µM) | 1.4 | 0.094 (≈ 0.109 µM) | 3 (≈ 3.47 µM) | – | –
17 | CCCCc1ccc(-c2ccc(C(=O)N[C@@H](CCCN)C(=O)N(C)[C@@H]3C(=O)N[C@@H](C)C(=O)N[C@H](c4ncc(C#N)[nH]4)Cc4ccc(OCCN)c(c4)-c4cc3ccc4OCCN)cc2)cc1 [Compound 139] | – | 110 | 1.5 (≈ 1.67 µM) | – | 24 (≈ 26.8 µM) | 1 (≈ 1.11 µM)
18 | CCCCc1ccc(-c2ccc(C(=O)N[C@@H](CCCN)C(=O)N(C)[C@@H]3C(=O)N[C@@H](C)C(=O)N[C@H](c4ncc(C(F)(F)F)[nH]4)Cc4ccc(OCCN)c(c4)-c4cc3ccc4OCCN)cc2)cc1 [Compound 140] | – | 370 | 1 (≈ 1.06 µM) | – | 32 (≈ 34 µM) | 4 (≈ 4.25 µM)
